In US5932709A (University of Michigan, priority 1997, dated 1999):
Values joined by “and” are separate entries in the source; they are usually repeats but may differ in a detail not shown here. Equal values may be shown once. Where a name gives a salt, the structure may show the parent alone.

What was measured:
[1] = as hydrochloride salt; cited from earlier work
[2] = system: murine P388 leukemia; experiment: Murine P388 leukemia model in vivo; set-up: species or system mouse (B6D2F1)
Protocol: (§1) For the B16 melanoma model, the following procedure was used. B6D2F1 mice receive i.p. inocula of B16 murine melanoma brei prepared from B16 tumors growing s.c. in mice (day 0). […] If dosing information for agents is not available, the maximum tolerated dose (MTD) is determined in initial dose finding experiments in non-tumored mice.
(§2) The mean survival times of all groups are calculated, and results are expressed as mean survival of treated mice/mean survival of control mice (T/C)×100%. A T/C value of 150 means that the mice in the treated group lived 50% longer than those of the control group; this is sometimes referred to as the increase in life span or ILS value.
For the P388 leukemia model, the procedure followed is exactly the same as the aforementioned B16 model. The tumor inoculum is prepared by removing ascited fluid containing P388 cells from tumored B6D2F1 mice, centrifuging the cells, and then resuspending the leukemia cells in saline. Mice receive 1×10^6 P388 cells i.p. on day 0.

[3] = human, in vivo; cited from earlier work
[4] = system: human lung tumor xenograft; experiment: Human lung tumor xenograft model; assay type: in vivo, human tumor in nude mice
Source text: (§3) For the human lung and prostate tumor xenograft models the following procedure was used. Nude mice were implanted s.c. by trocar with fragments of human lung or prostate carcinomas harvested from s.c. growing tumors in nude mice hosts. When tumors were approximately 5 mm×5 mm in size (usually ten to fourteen days after inoculation), the animals were pair-matched into treatment and control groups. Each group contained 10 tumored mice, each of which was ear-tagged and followed individually throughout the experiment. […] The doses, route of drug administration and schedule were selected as appropriate for the study in question. (See above protocol). […] Topotecan was run as a positive control at its MTD dose on a daily×5 and a daily×1 schedule. Male nude mice were used for both prostate studies.
(§4) Mice are weighed twice weekly, and tumor measurements were taken by calipers twice weekly, starting on day 1.
(§5) Some drugs cause tumor shrinkage in the human tumor xenograft models. […] A mean % tumor shrinkage can be calculated from the data from the mice in a group that experienced tumor regressions.

[5] = system: carcinoma cells; conditions: in vitro clonogenic assay / tumor cell growth, in words; cited from earlier work
[6] = system: human prostate tumor xenograft; experiment: Human prostate tumor xenograft model; assay type: in vivo, human tumor in nude mice
Source text: as §3, §4, §5

[7] = system: B16 murine melanoma; conditions: vs unmodified camptothecin, side by side; cited from earlier work
[8] = system: tumor growth; conditions: in words; cited from earlier work
[9] = molecular target: topoisomerase I; conditions: TPT-HCl; Wall et al.; cited from earlier work
[10] = system: MX-1 human breast tumor xenograft; experiment: in vivo
Source text: For all the models, the vehicle used to deliver the analog of interest was isotonic saline.
For the MX-1 human breast tumor xenograft models, the following procedure was used. Nude mice are implanted s.c. by trocar with fragments of MX-1 mammary carcinomas harvested from s.c. growing MX-1 tumors in nude mice hosts. When tumors are approximately 5 mm×5 mm in size (usually about ten days after inoculation), the animals are pair-matched into treatment and control groups. Each group contains ten tumored mice, each of which is ear-tagged and followed individually throughout the experiment. The administration of drugs or vehicle begins the day the animals are pair-matched (day 1). The doses, route of drug administration and schedule are selected as appropriate for the study in question. If the MTD dose of an agent is not known, it is determined in an initial dosing experiment in non-tumored mice. In a typical experiment, drugs are given at their MTD and 1/2 MTD doses i.p. on a daily×5 schedule.
The experiment is usually terminated when control tumors reach a size of 2-3 g. Mice are weighed twice weekly, and tumor measurements are taken by calipers twice weekly, starting on day 1. These tumor measurements are converted to mg tumor weight by a well known formula, and from these calculated tumor weights the termination date can be determined. Upon termination, all mice are weighed, sacrificed, and their tumors excised. Tumors are weighed, and the mean tumor weight per group is calculated.
Some drugs cause tumor shrinkage in the MX-1 model. With these agents, the final weight of a given tumor is subtracted from its own weight at the start of the treatment on day 1. This difference divided by the initial tumor weight is the % shrinkage. A mean % tumor shrinkage can be calculated from data from the mice in a group that experienced MX-1 regressions. If the tumor completely disappears in a mouse, this is considered a complete regression or complete tumor shrinkage. If desired, mice with partial or total tumor regressions can be kept alive past the termination date to see whether they live to become long term, tumor-free survivors.
Note that in the following table the abbreviation SR refers to tumor shrinkage rate, while those entries followed by a superscripted `2` are tumor growth inhibition rates, not tumor shrinkage rates.

[11] = system: P388 murine leukemia; conditions: vs unmodified camptothecin, side by side; cited from earlier work
[12] = system: Lewis lung carcinoma; conditions: vs unmodified camptothecin, side by side; cited from earlier work
[13] = system: murine B16 melanoma; experiment: Murine B16 melanoma model in vivo; set-up: species or system mouse (B6D2F1); conditions: for Survivors: 60-day
Protocol: 1) Murine B16 Melanoma Model
as §1, §2
Mice that survive for 60 days are considered long-term survivors, or cures, in the B16 model. The universally accepted cut-off for activity in this model, which has been for years by the National Cancer Institute, is T/C=125. Conventional use of B16 over the years has set the following levels of activity: T/C<125, no activity, T/C=125-150, weak activity; T/C=150-200, modest activity; T/C=200-300, high activity; T/C>300, with long term survivors; excellent, curative activity.

## CC[C@@]1(O)C(=O)OCc2c1cc1n(c2=O)Cc2cc3c(CN(C)C)c(O)ccc3nc2-1 [TPT, [(s)-9-dimethylaminomethyl-10-hydroxycamptothecin hydrochloride], reference compound]
[1]
  water solubility: 1000 µg/mL
[2]; 4 mg/kg daily×5
  30-day survivors: Three
[2]; 4 mg/kg i.p. daily×5
  T/C (mean survival treated/control): 297%
  Tox Deaths: 0/10
  ΔWeight (%): -6.6%
[2]; 4 mg/kg i.p. daily×5, 30-day
  Survivors: 3/10
[2]; i.p. five day schedule, in words
  efficacy vs P388 leukemia: comparable to that produced by HAR 6
[3]
  side effects in human clinical studies: myelosuppression, neutropenia, and thrombocytopenia
[4]; 4 mg/kg × 5 days
  Deaths: 0/10
  Shrink (% Tumor Shrinkage Rate): 55%
  Shrink (number of animals): 2/10
  TGI (% Tumor Growth Inhibition Rate): 66%
  TGI (number of animals): 8/10
[4]; 8 mg single ds
  Deaths: 0/10
  Shrink (number of animals): 0/10
  TGI (number of animals): 0/10
[4]; single dose, in words
  efficacy, single dose: completely ineffective
[5]
  anti-tumor effect in vitro: significant anti-tumor effects
[6]; 3 mg/kg × 5 days
  Deaths: 0/10
  Shrink (number of animals): 0/10
  TGI (% Tumor Growth Inhibition Rate): 35%
  TGI (number of animals): 10/10
[6]; 8 mg single ds
  Deaths: 0/10
  Shrink (number of animals): 0/10
  TGI (number of animals): 0/10
[6]; single dose, in words
  efficacy, single dose: completely ineffective
[7]
  in vivo antitumor efficacy: superior to unmodified camptothecin
[8]
  effectiveness against tumor growth in animal studies: at least as good or better than camptothecin
[9]
  IC50: 1100 nM
  topoisomerase I IC50: 0.504 µg/mL
[10]; 4 mg/kg
  weight loss: 15%
[10]; 4 mg/kg i.p. daily×5
  Tox Deaths: 0/10
  ΔWeight (%): -15.4%
[10]; 4 mg/kg i.p. daily×5, all 10 mice, HAR 6 experiment
  mean tumor shrinkage: 94%
[10]; 4 mg/kg i.p. daily×5, partial (94%)
  Shrinkage (animals): 6/10
[10]; 4 mg/kg, HAR 6 experiment
  mice with tumor shrinkage: 10
  mortality: no mortality
[10]; 4 mg/kg, second experiment
  complete regressions: one
  drug-related deaths: one
  mice with tumor growth inhibition: two
  partial responders: six
[10]; 4 mg/kg, complete (100%) shrinkage
  Shrinkage (animals): 1/10
[10]; 4 mg/kg, two mice, second experiment
  tumor growth inhibition: 94%
[10]; in vivo
  SR(%) (Tumor Shrinkage Rate): 94% and 100%
[11]
  in vivo antitumor efficacy: superior to unmodified camptothecin
[12]
  in vivo antitumor efficacy: superior to unmodified camptothecin
[13]; 2 mg/kg
  60-day survivors (cures): one
[13]; 2 mg/kg i.p. daily×5
  T/C (mean survival treated/control): 201%
  Tox Deaths: 0/10
  ΔWeight (%): +1.9%
  Survivors: 1/10
[13]; 2 mg/kg i.p. daily×5, listed as Topotecan
  T/C (mean survival treated/control): 210%
[13]; 4 mg/kg i.p. daily×5
  T/C (mean survival treated/control): 212%
  Tox Deaths: 0/10
  ΔWeight (%): -7.0%
  Survivors: 0/10
